In patent US20240226225A1 (Protagonist Therapeutics, Inc., priority 2021, published 2024):
Starred links: 1 amine or outer side, 2 acyl side, 3 side chain; linkers in the order of their positions; H or OH if unused. Positions of bridges follow the written chain, without caps; N, C: chain ends. Non-standard residues stand in square brackets, D forms with d. Residues, ends and D or L forms follow the SMILES beside them. Groups on a side chain read outwards from the residue. *: point of attachment. CH3O(CH2CH2O)11CH2CH2CO = COCCOCCOCCOCCOCCOCCOCCOCCOCCOCCOCCOCCC(=O)*; Ala(1H-tetrazol-5-yl) = N[C@@H](Cc1nnn[nH]1)C(=O)O; C18 diacid = O=C(O)CCCCCCCCCCCCCCCCC(=O)*; Dip = N[C@H](C(=O)O)C(c1ccccc1)c1ccccc1; γGlu = O=C(O)[C@H](CCC(=O)[*:2])N[*:1]; Palmitoyl = CCCCCCCCCCCCCCCC(=O)*; β3hF = N[C@H](CC(=O)O)Cc1ccccc1; Isovaleryl = CC(C)CC(=O)*; AEEA = NCCOCCOCC(=O)O; X4 = O=C(CCC(F)(F)F)*; Ahx = NCCCCCC(=O)O

Tests used:
ferroportin [1] = molecular target: T1, ferroportin (Homo sapiens, UniProt Q9NP59); assay: FPN activity assay: internalization/degradation of ferroportin-GFP in stably transfected HEK293 cells, decrease in GFP fluorescence; assay type: cell-based; design: expressed in transfected cells; settings: HEK293 cells stably expressing ferroportin-GFP, at least 18 hours incubation; read-out: FPN EC50
T1 sequence (Q9NP59 1-571): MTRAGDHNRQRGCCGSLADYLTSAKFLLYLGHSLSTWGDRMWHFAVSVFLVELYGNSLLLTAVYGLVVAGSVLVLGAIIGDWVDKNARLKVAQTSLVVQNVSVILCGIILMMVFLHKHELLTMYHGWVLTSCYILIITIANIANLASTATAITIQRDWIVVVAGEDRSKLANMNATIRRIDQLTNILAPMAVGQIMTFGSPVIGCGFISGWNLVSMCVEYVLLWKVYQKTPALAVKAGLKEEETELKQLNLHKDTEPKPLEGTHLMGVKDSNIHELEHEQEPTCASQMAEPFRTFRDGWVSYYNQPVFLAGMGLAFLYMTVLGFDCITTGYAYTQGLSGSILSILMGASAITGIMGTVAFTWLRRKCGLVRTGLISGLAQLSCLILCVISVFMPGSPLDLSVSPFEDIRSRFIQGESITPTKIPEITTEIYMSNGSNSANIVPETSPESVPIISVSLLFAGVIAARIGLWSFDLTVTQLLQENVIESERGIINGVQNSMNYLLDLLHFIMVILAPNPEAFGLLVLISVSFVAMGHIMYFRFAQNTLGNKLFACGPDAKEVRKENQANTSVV

ferroportin [2] = molecular target: T1, ferroportin; assay: T47D cell-based ferroportin internalization assay in presence of 0.5% mouse serum albumin (MSA), AF647-conjugated detection peptide, flow cytometry; design: a human breast carcinoma adherent cell line which endogenously expresses ferroportin; host or cells: T47D; settings: T47D cells, 1 hr incubation
Description: The potency of the peptides in causing ferroportin internalization was evaluated in a T47D cell-based assay. […] In this internalization assay, the potency of the test peptides was evaluated in presence of serum albumin which is the main protein component in the blood. T47D cells were maintained in RPMI media (containing required amount of fetal bovine serum) and regularly sub-cultured. In preparation for the assay, the cells were seeded in 96-well plates at a density of 80-100 k cells per well in 100 ul volume and allowed to rest overnight. On the next day, test peptides were first prepared in dilution series (10-point series, starting concentration of ˜5 μM, typically 3-4×fold dilution steps), all with 0.5% mouse serum albumin (MSA purified from mouse serum; Sigma, A3139). The test peptide dilution series were allowed to incubate at room temperature for 30 min. Then the media was aspirated from the 96-well cell plate and test peptide dilution series were added. After 1 hr incubation, the media with test peptides was aspirated out and AF647-conjugated detection peptide was added at fixed concentration of 200 nM. The AF647-conjugated detection peptide was previously verified to bind to ferroportin and cause its internalization. The cells were washed again after a 2 hr incubation in preparation for flow cytometry analysis. The Median Fluorescence Intensity (MFI) of the AF647-positive population was measured (after removing dead cells and non-singlets from the analysis). The MFI values were used to generate a dose-response curve and obtain IC50 potencies for the test peptides. The IC50 potencies were calculated by using 4-parameter non-linear fitting function in Graphpad Prism (Table 2A).

[3] = tested on: ferroportin fused to green fluorescent protein; settings: read-out: EC50 (50% of the maximal loss of fluorescence); cells incubated for 24 hours with graded concentrations; cited from earlier work
[4] = molecular target: human ferroportin (SLC40A1) fused in frame with GFP, stably expressed in HEK293 cells (human) (UniProt Q9NP59); assay: cell-based or functional assay

DC50 (ferroportin [1])	IC50 (ferroportin [2])	Potency EC50 (nM), FPN activity assay (ferroportin-GFP internalization/degradation, HEK293 cells) [4]	Compound	EC50 [3]
10 to 100 nM	10 to 100 nM	–	CC[C@H](C)[C@@H]1NC(=O)[C@@H](NC(=O)[C@@H]2CCCN2C(=O)[C@@H](NC(=O)[C@H](Cc2c[nH]cn2)NC(=O)[C@@H](NC(=O)[C@H](Cc2nn[nH]n2)NC(=O)C(C)(C)Br)[C@@H](C)O)C(c2ccccc2)c2ccccc2)CSSC[C@@H](C(N)=O)NC(=O)[C@@H](CCCCN)NC(=O)C[C@H](Cc2ccccc2)NC(=O)[C@H](CCCCNC(=O)COCCOCCNC(=O)COCCOCCNC(=O)CC[C@H](NC(=O)CCCCCCCCCCCCCCCCC(=O)O)C(=O)O)NC1=O [Compd 46, Propanoic_Acid_2Me2Br-[Tet1]-T-H-[Dpa]-P-[Cys]-I-[Lys(1PEG2_1PEG2_IsoGlu_C18_Diacid)]-[bhPhe]-[(D)Lys]-[Cys]-NH2]	–
10 to 100 nM	100 to 500 nM	–	CC[C@H](C)[C@@H]1NC(=O)[C@@H](NC(=O)[C@@H]2CCCN2C(=O)[C@@H](NC(=O)[C@H](Cc2c[nH]cn2)NC(=O)[C@@H](NC(=O)[C@H](Cc2nn[nH]n2)NC(=O)CCC(F)(F)F)[C@@H](C)O)C(c2ccccc2)c2ccccc2)CSSC[C@@H](C(N)=O)NC(=O)[C@@H](CCCCN)NC(=O)C[C@H](Cc2ccccc2)NC(=O)[C@H](CCCCNC(=O)COCCOCCNC(=O)COCCOCCNC(=O)CC[C@H](NC(=O)CCCCCCCCCCCCCCCCC(=O)O)C(=O)O)NC1=O [Compd 47, TriF_Butyric_Acid-[Tet1]-T-H-[Dpa]-P-[Cys]-I-[Lys(1PEG2_1PEG2_IsoGlu_C18_Diacid)]-[bhPhe]-[(D)Lys]-[Cys]-NH2] (X4-[Ala(1H-tetrazol-5-yl)]TH[Dip]PCIK([AEEA-AEEA-γGlu-C18 diacid])[β3hF][dK]C-NH2; disulfide 6-11)	–
10 to 100 nM	10 to 100 nM	–	CCCC(=O)N[C@@H](Cc1nn[nH]n1)C(=O)N[C@H](C(=O)N[C@@H](Cc1c[nH]cn1)C(=O)N[C@H](C(=O)N1CCC[C@H]1C(=O)N[C@H]1CSSC[C@@H](C(N)=O)NC(=O)[C@@H](CCCCN)NC(=O)C[C@H](Cc2ccccc2)NC(=O)[C@H](CCCCNC(=O)COCCOCCNC(=O)COCCOCCNC(=O)CC[C@H](NC(=O)CCCCCCCCCCCCCCCCC(=O)O)C(=O)O)NC(=O)[C@H]([C@@H](C)CC)NC1=O)C(c1ccccc1)c1ccccc1)[C@@H](C)O [Compd 49, Butyric_Acid-[Tet1]-T-H-[Dpa]-P-[Cys]-I-[Lys(1PEG2_1PEG2_IsoGlu_C18_Diacid)]-[bhPhe]-[(D)Lys]-[Cys]-NH2]	–
10 to 100 nM	1 to 10 nM	–	CCCCCCCCCCCCCCCC(=O)NCCCCCC(=O)NCCCC[C@@H]1NC(=O)C[C@H](Cc2ccccc2)NC(=O)[C@@H](CCCCNC(=O)CCOCCOCCOCCOCCOCCOCCOCCOCCOCCOCCOCCOC)NC(=O)[C@H]([C@@H](C)CC)NC(=O)[C@@H](NC(=O)[C@@H]2CCCN2C(=O)[C@@H](NC(=O)[C@H](Cc2c[nH]cn2)NC(=O)[C@@H](NC(=O)[C@H](Cc2nn[nH]n2)NC(=O)CC(C)C)[C@@H](C)O)C(c2ccccc2)c2ccccc2)CSSC[C@@H](C(N)=O)NC(=O)[C@@H](CCCCNC(=O)CCOCCOCCOCCOCCOCCOCCOCCOCCOCCOCCOCCOC)NC1=O [Compd 50, Isovaleric Acid-[Tet1]-T-H-[Dpa]-P-[Cys]-I-[(DLys(PEG11_OMe-[bhPhe]-[Lys(Ahx_Palm)]-[(D)Lys(PEG11_OMe)]-[Cys]-NH2] (Isovaleryl-[Ala(1H-tetrazol-5-yl)]TH[Dip]PCI[dK](CH3O(CH2CH2O)11CH2CH2CO)[β3hF]K([Ahx-Palmitoyl])[dK](CH3O(CH2CH2O)11CH2CH2CO)C-NH2; disulfide 6-12)	–
10 to 100 nM	10 to 100 nM	–	CC[C@H](C)[C@@H]1NC(=O)[C@@H](NC(=O)[C@@H]2CCCN2C(=O)[C@@H](NC(=O)[C@H](Cc2cnc[nH]2)NC(=O)[C@@H](NC(=O)[C@H](CC2N=NN=N2)NC(=O)CC(C)C)[C@@H](C)O)C(c2ccccc2)c2ccccc2)CSSC[C@@H](C(N)=O)NC(=O)[C@@H](CCCCN)NC(=O)C[C@H](Cc2ccccc2)NC(=O)[C@H](CCCCNC(=O)COCCOCCNC(=O)COCCOCCNC(=O)CCCCCNC(=O)CCCCCCCCCCCCCCCCC(=O)O)NC1=O [Compd 51, Isovaleric Acid-[Tet1]-T-H-[Dpa]-P-[Cys]-I-[Lys(1PEG2_1PEG2_Ahx_C18_Diacid)]-[bhPhe]-[(D)Lys]-[Cys]-NH2]	–
10 to 100 nM	10 to 100 nM	–	CC[C@H](C)[C@@H]1NC(=O)[C@@H](NC(=O)[C@@H]2CCCN2C(=O)[C@@H](NC(=O)[C@H](Cc2cnc[nH]2)NC(=O)[C@@H](NC(=O)[C@H](CC2N=NN=N2)NC(=O)CC(C)C)[C@@H](C)O)C(c2ccccc2)c2ccccc2)CSSC[C@@H](C(N)=O)NC(=O)[C@@H](CCCCN)NC(=O)C[C@H](Cc2ccccc2)NC(=O)[C@H](CCCCNC(=O)COCCOCCNC(=O)COCCOCCNC(=O)[C@H](CN)NC(=O)CCCCCCCCCCCCCCCCC(=O)O)NC1=O [Compd 53, Isovaleric_Acid-[Tet1]-T-H-[Dpa]-P-[Cys]-I-[Lys(1PEG2_1PEG2_Dap_C18_Diacid)]-[bhphe]-[(D)Lys]-[Cys]-NH2]	–
–	–	–	Hy-DTHFPIC(1)IFC(2)C(3)GC(2)C(4)HRSKC(3)GMC(4)C(1)KT-OH [Hepcidin]	5 to 15 nM
–	–	712 nM	Mini-Hepcidin 1-9, Hy-…-NH2 (peptide)	–
–	–	> 10000 nM	RI-Mini Hepcidin, Hy-DPhe-DIle-DCys-DIle-DPro-DPhe-DHis-DThr-DAsp-NH2 (peptide)	–
